Measurements published in patent US20230045112A1, “DISULFIRAM AND OTHER REDOX-RELATED COMPOSITIONS FOR BRAIN TUMORS” (Texas Tech University System, priority 2014, published 2023).
Where two headings read alike, the source gives them in different places.

Columns and labels:
[1] = cited from earlier work
MGMT [2] = target: T1, MGMT (Homo sapiens, UniProt P16455); assay: MGMT activity and protein (western blot) in drug-treated T98G and UW228 brain tumor cells; type: cell-based; design: endogenous in cells; host or cells: UW228, T98G
T1 sequence (P16455 1-207): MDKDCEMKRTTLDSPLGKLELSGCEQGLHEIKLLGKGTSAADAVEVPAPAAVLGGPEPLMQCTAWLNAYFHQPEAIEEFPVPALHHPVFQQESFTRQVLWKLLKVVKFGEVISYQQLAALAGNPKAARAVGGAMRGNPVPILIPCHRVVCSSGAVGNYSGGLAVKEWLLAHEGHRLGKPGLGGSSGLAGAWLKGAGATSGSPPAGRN
Description: (§1) The DNA repair activity of MGMT was measured by the transfer of [3H]-labeled methyl groups from the O^6-position of guanine in the DNA substrate to the MGMT protein as described previously. The DNA substrate enriched in O6-methylguanine was prepared by reacting [3H]-methylnitrosourea (GE Healthcare, 60 Ci/mmol). Briefly, the cell pellets were washed with cold PBS, disrupted by sonication in the assay buffer (30 mM Tris-HCl pH 7.5, 0.5 mM DTT, 0.5 mM EDTA, 5% glycerol, and 20 μM spermidine) and centrifuged. The extracts (50-150 μg protein) were supplemented with the [3H]-DNA (10,000 cpm) and incubated at 37° C. The reactions were terminated by the addition of TCA, the DNA substrate was hydrolyzed at 80° C., and following filtration on glass fiber discs; the radioactivity present in protein precipitates was quantitated.
After trypsinization, the cell pellets were washed with cold PBS, and subjected to sonication in 50 mM Tris-HCl (pH 8.0) containing 1% glycerol, 1 mM EDTA, 0.5 mM PMSF and 2 mM benzamidine and centrifuged. Equal protein amounts from different treatments were electrophoresed on 12% SDS-polyacrylamide gels. Proteins were electro-transferred to Immobilon-P membranes. The membranes were blocked with 5% non-fat dry milk in Trisbuffered saline (TBS; pH 8.0) containing 0.1% Tween 20 for 3 hours, and subsequently incubated with appropriate primary antibodies. Antigen-antibody complexes were visualized by enhanced chemiluminiscence (Pierce Company). Band intensities were quantified using a Bio-Rad Versa Doc Imaging system.
(§2) Cells were trypsinized, washed and MGMT activity was determined in cell extracts (top panel). The same extracts were western blotted for MGMT protein. WB, western blot. […] Cells were exposed to CuDSF and analyzed for MGMT activity and protein as above. […] To delineate the appropriate time for alkylating drug treatments following MGMT inhibition, next, the time course of MGMT depletion by these three interventions was studied.
At times indicated, MGMT activity and protein levels were assessed.
MGMT performs a stoichiometric reaction to accomplish the DNA repair and is not recycled to its active form. Instead, the inactivated protein is degraded and fresh translation has to occur to restore the MGMT levels in cells. The rate and extent of this recovery is an important factor in the extent of damage introduced to the normal cell genomes such as the bone marrow stem cells. […] MGMT protein and activity levels were analyzed during the depletion and repletion (FIG. 3B).

MGMT [3] = target: T2, MGMT (Mus musculus, UniProt P26187); assay: MGMT activity in mouse brain and liver after DSF administration; type: in vivo, mice; conditions: single dose 150 mg/kg i.p., 9-12 hours
T2 construct: from tissue; host or cells: mouse brain and liver
From the text: Control mice received DMSO alone.
Error bars indicate SD. […] The overall findings of the present study are summarized.

UW228 cells [4] = assay: Soft agar colony formation assay; type: cell-based, human; conditions: 50 μM DSF then BCNU or TMZ
Description: (§3) These were performed using the yellow tetrazolium dye (3-(4, 5-dimethylthiazolyl-2)-2, 5-diphenyl tetrazolium bromide) (MTT) as described previously. […] The purple color developed due to formazan was measured at 570 nm using a […]luor Plus plate reader (Tecan Inc.). Cell proliferation was also assessed by colony formation assays on soft agar.
(§4) Cells were then cultured for 48 hours before performing the MTT assays. […] The effect of drugs on cell survival was computed at each concentration. The data represents the results of three independent experiments performed in triplicate.

[5] = target: T3, cellular MGMT (UW228 cell-free extracts) (Homo sapiens, UniProt P16455); assay: MGMT DNA repair activity in UW228 cell-free extracts treated with DSF; type: biochemical; conditions: 25 μM DSF, 20 minutes
T3 construct: endogenous in cells; host or cells: UW228, T98G
Description: as §1, §2

[6] = tested on: U87 malignant glioma cells; assay: MTT cell survival assay, MGMT-deficient cells; type: cell-based, human; conditions: DSF-pretreated U87 cells lacking MGMT expression
Description: as §3
Cells were then cultured for 48 hours before performing the MTT assays. […] The effect of drugs on cell survival was computed at each concentration. The data represents the results of three independent experiments performed in triplicate. Values are mean+S.D. The results presented in panels B, C and G (at 25-75 μM BCNU and 250-750 temozolomide) were significant at P<0.05. *, indicates statistically significant difference as compared to controls.

UW228 cells [7] = assay: MTT cell survival assay; type: cell-based, human
Description: as §3, §4

T2 sequence (P26187 whole entry): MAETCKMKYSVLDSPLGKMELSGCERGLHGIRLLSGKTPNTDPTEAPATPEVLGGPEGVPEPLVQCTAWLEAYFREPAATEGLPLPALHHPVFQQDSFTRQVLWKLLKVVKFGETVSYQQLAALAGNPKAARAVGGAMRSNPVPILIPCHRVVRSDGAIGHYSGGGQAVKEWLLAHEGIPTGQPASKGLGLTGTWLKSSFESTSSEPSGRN

duration of inactivation of MGMT (MGMT [2]): > 30 h | duration of suppression of MGMT activity in cell cultures (MGMT [2]): 24 to 36 h | inhibition at 50 µM (MGMT [2]; 50 μM in culture medium, at 12 hours, maintained till 24 hours, read-out: maximal inhibition of MGMT activity and protein): 75% | inhibition at 50 µM (MGMT [2]; UW228 cells, 50 μM, 12 hours, read-out: loss/inhibition of MGMT activity at 12 hours post-drug treatment): 75% | reversibility of DSF modification of MGMT by DTT (MGMT [2]; UW228 cells, 10 mM DTT): largely irreversible | recovery of MGMT activity, % of control levels (MGMT [2]; UW228 cells, 48 hours post-drug in drug-free media after 50 μM for 12 hours): ~95 % of control levels | inhibition at 50 µM (MGMT [2]; read-out: inhibition of MGMT activity): ~70% | decrease of MGMT repair activity in brain (MGMT [3]): 40% | repair activity in the extracts curtailed [5]: 75%
SMILES: CCN(CC)C(=S)SSC(=S)N(CC)CC [DSF, 1,1′,1″,1′″-[disulfanediylbis(carbonothioylnitrilo)]tetraethane]
partition coefficient Log P [1]: 2.8 | enhanced cytotoxicity of BCNU or TMZ, colony formation (UW228 cells [4]): 3 fold | effect on cell killing by TMZ or BCNU [6]: did not increase the extent of cell killing by TMZ or BCNU | effect on melphalan-induced cell killing (UW228 cells [7]; 50 μM DSF preincubation 12 hours): did not increase the melphalan-induced cell killing | potentiation of BCNU cytotoxicity (UW228 cells [7]; 50 μM DSF preincubation 12 hours, BCNU 4 days): 3 fold | increased cytotoxicity of TMZ+DSF compared to TMZ alone (UW228 cells [7]; 50 μM DSF preincubation 12 hours, TMZ 4 days): 4 to 5 fold | cell killing by DSF alone (UW228 cells [7]; 50 μM DSF, 24 hours, then cultured 48 hours): less than 5%
